Experimental data reported in ChEMBL document CHEMBL1150931, “10-Oximeguanacone, the first nitrogenated acetogenin derivative found to be a potent inhibitor of mitochondrial complex I” (J Nat Prod, 1998).
pIC50: −log10 of the molar value.

Assay: Inhibition of NADH-oxidase activity of electron transport protein complex 1 in submitochondrial particles of bovine heart
Design: species or system Bos taurus

Structure (SMILES)	pIC50
CCCCCCCCCC[C@H](O)[C@H]1CC[C@H]([C@H]2CC[C@H]([C@H](O)CCCC/C(CCCCCCCC3=C[C@H](C)OC3=O)=N\O)O2)O1	9.47
CCCCCCCCCC[C@H](O)[C@H]1CC[C@H]([C@H]2CC[C@H]([C@H](O)CCCCC(O)CCCCCCCC3=C[C@H](C)OC3=O)O2)O1 (some centres undefined)	9.02
CCCCCCCCCC[C@H](O)[C@H]1CC[C@H]([C@H]2CC[C@H]([C@H](O)CCCCCCCCCCCCC3=C[C@H](C)OC3=O)O2)O1 [BULLANIN]	9.49
CCCCCCCCCC[C@H](O)[C@H]1CC[C@H]([C@H]2CC[C@H]([C@H](O)CCCCC(=O)CCCCCCCC3=C[C@H](C)OC3=O)O2)O1 [GUANACONE]	8.82
CCCCC[C@H](O)CCCC[C@H](O)[C@H]1CC[C@H]([C@H]2CC[C@H]([C@H](O)CCCCCCCCCCCCC3=C[C@H](C)OC3=O)O2)O1 [MOTRILIN]	9.39
CCCCCCCCCC[C@H](O)[C@@H]1CC[C@H]([C@H]2CC[C@@H]([C@H](O)CCCCCCCC[C@@H](O)CC3=C[C@H](C)OC3=O)O2)O1 [ROLLIMEMBRIN]	9.48
CCCCCCCCCC[C@H](O)[C@H]1CC[C@H]([C@H]2CC[C@H]([C@H](O)CCCCCCCCCCC(O)CC3=C[C@H](C)OC3=O)O2)O1 (some centres undefined) [rolliniastatin-2]	9.29

Assay: Inhibition of NADH-ubiquinone oxidoreductase activity of electron transport protein complex 1 in submitochondrial particles of bovine heart
Design: species or system Bos taurus

Structure (SMILES)	pIC50
CCCCCCCCCC[C@H](O)[C@H]1CC[C@H]([C@H]2CC[C@H]([C@H](O)CCCC/C(CCCCCCCC3=C[C@H](C)OC3=O)=N\O)O2)O1	9.17
CCCCCCCCCC[C@H](O)[C@H]1CC[C@H]([C@H]2CC[C@H]([C@H](O)CCCCC(O)CCCCCCCC3=C[C@H](C)OC3=O)O2)O1 (some centres undefined)	8.72
CCCCCCCCCC[C@H](O)[C@H]1CC[C@H]([C@H]2CC[C@H]([C@H](O)CCCCCCCCCCCCC3=C[C@H](C)OC3=O)O2)O1 [BULLANIN]	9.36
CCCCCCCCCC[C@H](O)[C@H]1CC[C@H]([C@H]2CC[C@H]([C@H](O)CCCCC(=O)CCCCCCCC3=C[C@H](C)OC3=O)O2)O1 [GUANACONE]	8.68
CCCCC[C@H](O)CCCC[C@H](O)[C@H]1CC[C@H]([C@H]2CC[C@H]([C@H](O)CCCCCCCCCCCCC3=C[C@H](C)OC3=O)O2)O1 [MOTRILIN]	9.09
CCCCCCCCCC[C@H](O)[C@@H]1CC[C@H]([C@H]2CC[C@@H]([C@H](O)CCCCCCCC[C@@H](O)CC3=C[C@H](C)OC3=O)O2)O1 [ROLLIMEMBRIN]	9.08
CCCCCCCCCC[C@H](O)[C@H]1CC[C@H]([C@H]2CC[C@H]([C@H](O)CCCCCCCCCCC(O)CC3=C[C@H](C)OC3=O)O2)O1 (some centres undefined) [rolliniastatin-2]	9.21
